Publication PMC11724466, “PRMT5 inhibition has a potent anti-tumor activity against adenoid cystic carcinoma of salivary glands” (Journal of Experimental & Clinical Cancer Research : CR, 2025)
pIC50: −log10 of the molar value.

Molecular target: T1, PRMT5 (protein arginine methyl transferase 5) (Homo sapiens, UniProt O14744)
T1 construct: human recombinant PRMT5/MEP50 complex; with MEP50
Test: scintillation proximity radiometric methyltransferase assay (3H-SAM, histone H4 peptide); jump dilution
Assay type: biochemical

T1 sequence (O14744 2-637): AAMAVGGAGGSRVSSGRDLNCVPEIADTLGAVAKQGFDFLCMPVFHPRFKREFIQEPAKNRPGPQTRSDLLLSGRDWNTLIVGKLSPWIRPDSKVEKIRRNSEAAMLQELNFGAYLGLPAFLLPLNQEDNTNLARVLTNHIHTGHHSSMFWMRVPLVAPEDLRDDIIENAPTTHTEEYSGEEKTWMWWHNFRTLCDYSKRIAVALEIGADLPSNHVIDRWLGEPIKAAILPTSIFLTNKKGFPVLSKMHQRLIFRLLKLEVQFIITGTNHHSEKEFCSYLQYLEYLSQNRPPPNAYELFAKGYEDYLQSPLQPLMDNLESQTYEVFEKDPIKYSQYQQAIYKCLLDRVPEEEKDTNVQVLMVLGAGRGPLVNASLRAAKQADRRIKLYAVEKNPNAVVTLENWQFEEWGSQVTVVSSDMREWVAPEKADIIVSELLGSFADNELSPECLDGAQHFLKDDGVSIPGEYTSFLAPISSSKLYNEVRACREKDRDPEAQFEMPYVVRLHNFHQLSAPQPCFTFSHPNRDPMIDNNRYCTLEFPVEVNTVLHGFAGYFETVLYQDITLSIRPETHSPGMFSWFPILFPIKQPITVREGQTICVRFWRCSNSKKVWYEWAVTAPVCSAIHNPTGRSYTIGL
T1 sequence (Q9BQA1 whole entry partner): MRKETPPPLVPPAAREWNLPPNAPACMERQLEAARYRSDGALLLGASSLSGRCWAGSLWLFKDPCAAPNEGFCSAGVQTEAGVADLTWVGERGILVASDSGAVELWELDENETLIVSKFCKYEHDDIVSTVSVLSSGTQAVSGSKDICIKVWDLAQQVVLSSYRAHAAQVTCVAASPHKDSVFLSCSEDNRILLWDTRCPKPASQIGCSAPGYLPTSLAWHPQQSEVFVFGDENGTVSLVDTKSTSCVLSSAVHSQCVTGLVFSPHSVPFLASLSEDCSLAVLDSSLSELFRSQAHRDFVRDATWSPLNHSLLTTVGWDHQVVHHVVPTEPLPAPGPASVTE

Substance: PRT543
- pIC50: 7.97
